Source: US20060084704A1, “Methods and compositions for enhancing degradation of nuclear receptor transcription factors and uses thereof” (priority 2004, published 2006)

Tests used:
LNCaP cells = assay: LNCaP growth assay (cell count); type: cell-based, human; settings: 5 μM
Protocol: LNCaP cells express an endogenous mutant AR that is found in prostate cancer patients. This clinically relevant cell model was used to study JC9's effect in suppressing prostate cancer cell growth. Cells were plated at a density of 6.3×10^4 cells/well in 6-well tissue culture dishes. Two days later, the complete medium was aspired and 10% charcoal/dextran-treated (hormone depleted) serum-containing medium was added. Test compounds, JC9 and hydroxyflutamide (HF) were then added to the medium at a final concentration of 5 μM with or without 1 nM of DHT. For vehicle control, the same amount of DMSO was added. For the subsequent 5 days, the medium was aspired once per day, and fresh medium containing test compounds and/or DHT was added. At designated times, a portion of cells was harvested by trypsinization, and cell count was performed using a hemacytometer.

androgen receptor (AR) = biological target: T1, androgen receptor (AR) (Homo sapiens, UniProt P10275); assay: Western blot of T47D cell lysates, AR; type: cell-based; settings: 5 or 10 micromolar, presence or absence of estradiol (E2)
T1 construct: endogenous in cells; host or cells: T47D
T1 sequence (P10275 1-920): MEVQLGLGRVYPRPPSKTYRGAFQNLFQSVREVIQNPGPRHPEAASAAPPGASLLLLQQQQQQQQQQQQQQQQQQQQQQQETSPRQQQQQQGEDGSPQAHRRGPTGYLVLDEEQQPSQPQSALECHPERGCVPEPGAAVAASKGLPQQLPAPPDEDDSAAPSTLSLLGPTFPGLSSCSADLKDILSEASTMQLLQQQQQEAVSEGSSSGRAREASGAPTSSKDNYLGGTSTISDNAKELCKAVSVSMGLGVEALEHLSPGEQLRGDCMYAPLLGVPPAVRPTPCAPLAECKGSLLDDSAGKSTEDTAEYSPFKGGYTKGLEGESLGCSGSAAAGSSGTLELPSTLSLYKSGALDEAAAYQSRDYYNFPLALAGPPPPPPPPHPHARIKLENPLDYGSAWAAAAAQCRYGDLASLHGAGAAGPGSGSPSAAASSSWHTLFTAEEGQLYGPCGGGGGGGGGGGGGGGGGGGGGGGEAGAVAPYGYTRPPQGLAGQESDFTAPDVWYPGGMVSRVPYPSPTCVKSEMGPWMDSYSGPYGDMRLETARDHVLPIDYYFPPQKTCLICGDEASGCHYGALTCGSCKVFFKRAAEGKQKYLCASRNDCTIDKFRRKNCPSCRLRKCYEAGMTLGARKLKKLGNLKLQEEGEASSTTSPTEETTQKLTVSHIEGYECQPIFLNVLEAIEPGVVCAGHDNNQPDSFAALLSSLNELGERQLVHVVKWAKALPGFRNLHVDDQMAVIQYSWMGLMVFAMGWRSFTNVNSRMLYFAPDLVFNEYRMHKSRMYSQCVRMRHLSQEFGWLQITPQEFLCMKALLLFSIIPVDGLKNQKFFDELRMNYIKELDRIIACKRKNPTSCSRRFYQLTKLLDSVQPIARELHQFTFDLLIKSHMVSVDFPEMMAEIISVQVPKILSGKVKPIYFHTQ
Protocol: (§1) Human prostate cancer LNCaP cells and T47D cells were plated at a density of 7×10^5 cells per 60 millimeter tissue culture dish in […] (RPMI) medium containing 10% FBS. The medium was changed to RPMI or DME medium containing 10% charcoal-stripped serum 24 hours later to deplete cellular androgens or estrogens. After another 24 hours, treatment with the test compounds began. The test dose of JC15 was 1 or 2 micromolar and the test does of JC9 was 1, 5 and 10 micromolar. LNCap cells also received dihydrotestosterone (DHT) (3 nanomolar). Control cells received a corresponding amount of the vehicle, dimethylsulfoxide (DMSO) (<0.04%) for an equivalent exposure time. Cells were incubated with JC15 for 24 or 48 hours, and were lysed in 250 microliters of 1×SDS/PAGE loading buffer. Approximately 40 micrograms of total cellular protein was loaded in each lane of a pre-cast gel (NuPAGE, Invitrogen). Protein separation and transfer were performed following the manufacturer's instructions.

[1] = biological target: T2, wild type androgen receptor (Homo sapiens, UniProt P10275); assay: Androgen receptor transactivation assay in CV-1 cells (MMTV-luciferase reporter); type: cell-based; settings: CV-1 cells transfected with wild type AR, DHT 1 nM, JC9 0 uM to 7.5 uM
T2 construct: expressed in transfected cells; host or cells: CV-1 (green monkey kidney cells lacking an androgen receptor)
T2 sequence (P10275 1-920): T1 sequence (P10275 1-920)
From the text: Prostate cancer cells, non-prostate tumor cells, and normal cells can be used in this transient transfection assay, which measures transactivation of the androgen receptor (AR) and can be used to detect a reduction of AR activity caused by AR degradation. In the provided non-limiting example, CV-1 (green monkey kidney cells lacking an androgen receptor) and LNCaP cells (prostate cancer cells containing an endogenous mutant AR), were transfected with a plasmid carrying an androgen response element (ARE) and a reporter gene.
Both the CV-1 and LNCaP cells (obtained from ATCC, Manassas, Va.) were maintained in […] medium supplemented with penicillin (25 units/millilter), streptomycin (25 micrograms/milliliter), and 10% heat-inactivated fetal bovine serum (FBS). Cells were plated in 35-millimeter dishes at a concentration of 1-2×10^5cells/well and cultured at 37 degrees Celsius in an incubator under a 5% carbon dioxide atmosphere. […] The cells were lysed, and luciferase activity of the lysate was measured with the Dual-Luciferase Reporter Assay System (Promega, Madison, Wis.). Data were expressed as relative luciferase activity normalized to the internal luciferase positive control. […]

[2] = test system: prostate-specific antigen (PSA); assay: Western blot of LNCaP cell lysates, PSA; type: cell-based, human; settings: 1 or 2 micromolar, 24 hours, presence or absence of DHT
Protocol: as §1
For the prostate cell lysates, androgen receptor (AR) protein was visualized by incubating the resultant membranes with an anti-AR antibody (BD-PharMingen), followed by chemiluminescence detection (ECL Plus, Amersham). […] The resultant protein signals were quantified using densitometry and NIH ImageJ software.

Row | Structure (SMILES) | cell growth (cell number) in the presence of DHT (LNCaP cells; with 1 nM DHT, 5 days) | cell growth (cell number) (LNCaP cells; without DHT, 5-day incubation) | cellular concentration of AR (androgen receptor (AR)) | DHT-induced androgen receptor transcriptional activation (relative luciferase activity) [1] | PSA levels [2]
1 | COc1ccc(C=CC(=O)C=C(O)C=Cc2ccc(OC)c(OC)c2)cc1OC [JC9, 5-hydroxy-1,7-bis(3,4-dimethoxyphenyl)-1,4,6-heptatrien-3-one] | good potency to decrease LNCaP cell growth | only a minimal number of viable cells | decreased | capable of inhibiting DHT-induced androgen receptor transcriptional activation in a dose dependent manner | 
2 | CCOC(=O)CCC(C(=O)C=Cc1ccc(O)c(OC)c1)C(=O)C=Cc1ccc(O)c(OC)c1 (centres unmarked) [JC15, 7-(4-hydroxy-3-methoxyphenyl)-4-[3-(4-hydroxy-3-methoxyphenyl)acryloyl]-5-oxo-hept-6-enoic acid ethyl ester] |  |  |  |  | decreased
